The record followed here is patent US11433014B2, “Polyol polyrhamnosides, process for the preparation thereof, and cosmetic and/or pharmaceutical composition comprising same” (SOCIETE D'EXPLOITATION DE PRODUITS POUR LES INDUSTRIES …, priority 2017, dated 2022).

Values joined by “and” are separate entries in the source; they are usually repeats but may differ in a detail not shown here. Equal entries are not always repeated.

The experiment has as its system Normal human fibroblasts. As to the kind of experiment: Production of hyaluronic acid on human fibroblast cultures. To be noted: EGF 10 ng/ml (positive reference), 72-hour incubation. It counts as cell-based. As to the method: B)—Evaluation of the Moisturizing Effect of the Compositions According to the Invention—Measurement of the Production of Hyaluronic Acid on Human Fibroblast Cultures:
Normal human fibroblasts are seeded and cultured in 96-well plates in 10% FCS (fetal calf serum) culture medium, at 37° C. in a humid atmosphere containing 5% CO2. […] Each condition is performed in n=4. At the end of a 72-hour incubation, the amount of hyaluronic acid excreted into the culture supernatant is measured using a specific assay kit (Hyaluronan Duo Set Assay Development Kit—Biotechne); and the amount of protein present in the cell lawns is measured using the BC Assay kit (Interchim). The amount of hyaluronic acid assayed is then expressed relative to the amount of protein per well. Means and standard deviations are calculated per condition and the level of hyaluronic acid production is evaluated by comparing the test conditions with the control condition (untreated cells).

Regarding “EGF: epidermal growth factor, the positive reference for the model”, the “Amount of hyaluronic acid produced, Mean” value (culture supernatant, n=4) is 32.29 ng/μg protein and 25.28 ng/μg protein. Also, the “Amount of hyaluronic acid produced, Difference relative to the control” value (vs untreated cells) is recorded as 164%.
